For one compound, Km results are on record in PMC6396153, “Dechlorination of polychlorobiphenyl degradation metabolites by a recombinant glutathione S‐transferase from Acidovorax sp. KKS102” (FEBS Open Bio, 2019).

In this assay the test system is BphK-KKS. The assay is described as follows: absorbance at […] nm, non-linear regression. To be noted: GSH held constant, CDNB varied 0.3-2.1 mM, 50 mM sodium phosphate pH 6.5; read-out: CDNB / K m. It counts as biochemical, Acidovorax sp. KKS102.

SMILES strings stand for the structures.

As for `O=[N+]([O-])c1ccc(Cl)c([N+](=O)[O-])c1` [CDNB, 1-chloro-2,4-dinitrobenzene], the Km is 2580 ± 140 µM.
